Earlier results as cited in US20220331377A1, “DELIVERY VEHICLE FOR IN SITU DELIVERING OF PHARMACEUTICAL AGENTS” (priority 2019, published 2022).

System: C. difficile
Conditions: patients; P=0.05; cited from earlier work

CN[C@H](CC(C)C)C(=O)N[C@H]1C(=O)N[C@@H](CC(N)=O)C(=O)N[C@H]2C(=O)N[C@H]3C(=O)N[C@H](C(=O)N[C@H](C(=O)O)c4cc(O)cc(O)c4-c4cc3ccc4O)[C@H](O)c3ccc(c(Cl)c3)Oc3cc2cc(c3O[C@@H]2O[C@H](CO)[C@@H](O)[C@H](O)[C@H]2O[C@H]2C[C@](C)(N)[C@H](O)[C@H](C)O2)Oc2ccc(cc2Cl)[C@H]1O [vancomycin]
recurrent C. difficile disease (RCDD): 50%
